Results on 2 molecules are retold here after patent US20150239835A1, “COMPOSITION, SYNTHESIS, AND USE OF A NEW CLASS OF ISONITRILES” (DUQUESNE UNIVERSITY OF THE HOLY GHOST, priority 2014, published 2015).

SMILES strings stand for the structures.

A word on the melting point: it is the temperature of the solid-liquid transition. In the case of `[C-]#[N+]CSc1c(OC)cccc1OC` [Example 16, (2,6-dimethoxyphenyl)(isocyanomethyl)sulfane], the melting point fell in the range of 47 to 48 °C.

`[C-]#[N+]CSc1c(OC)cccc1C(F)(F)F` [Example 17, 2-((Isocyanomethyl)sulfanyl)-1-methoxy-3-(trifluoromethyl)benzene] came in with a melting point of 54 to 55 °C.
